# Measured values taken from patent US20260226089A1, “METHOD FOR CONTROLLING IMPURITIES IN L-ARABINOSE AND USE THEREOF” (THOMSON BIOTECH (XIAMEN) PTE. LTD., priority 2023, published 2026).
# Assays:
# constipation model rats = experiment: Therapeutic effect on constipation model rats (modeling with compound diphenoxylate); assay type: in vivo, rat; conditions: n = 8; for Time for first dark stools min: first administration with 5% activated carbon; for Time for first dark stools min / Small intestine propulsion rate %: x ± sd; for Small intestine propulsion rate %: gavage once daily; for Water content of stools %: stools collected on day 7, x ± sd
# Description: • Modeling procedure: modeling with compound diphenoxylate. • Experimental drugs and reagents: activated carbon (5%); a 0.4 g/mL aqueous solution prepared from an arabinose drug. • Positive control: PEG (Shutaiqing). SPF-grade rats (Zhejiang Vital River Laboratory Animal Technology Co., Ltd.).
# Except for the normal group, the successfully modeled rats were randomly divided into 5 groups, including a model group, a low dose group, a medium dose group, a high dose group, and a positive control group, 8 animals per group. Each rat was housed individually in separate cages, and operations were conducted fixedly at 10:00-12:00 every day. The normal group and the model group were gavaged with 0.2 mL of purified water. The positive control group was gavaged with 0.133 mL of a mosapride solution, and the low dose group, the medium dose group, and the high dose group were gavaged with 0.01 mL, 0.02 mL, and 0.04 mL of the test drug, respectively, with the volume adjusted to 0.2 mL using purified water. The rats had free access to food and water. The administration was performed for 7 consecutive days (times).
# For the first administration, the drug with 5% activated carbon (based on 0.2 g×5%) added was intragastrically administered to the treatment group, and 0.2 mL of purified water with activated carbon added was intragastrically administered to the normal group and the model group. The time for the first dark stools was recorded.
# The rats were intragastrically administered once daily. On day 7 after the continuous administration, the stools were collected using a sterile centrifuge tube and stored at −100° C. The collected stools were dried at 105° C. to a constant weight, and the water content of the stools was calculated according to the formula: water content of stools=(1−mass after drying/mass before drying)×100%.
# The rats were intragastrically administered once daily for 14 days and then fasted for 12 h. 1 h after the last administration, each group of animals was gavaged with 0.15 mL of 5% activated carbon, and 30 min later, the rats were anesthetized with an intraperitoneal injection of 10% chloral hydrate. After anesthesia was completed, the abdominal operation was immediately performed. The intestinal canal from pylorus to ileocecal junction was cut off and placed on a glass plate. The length of the intestinal tract traversed by the ink and the total length of the intestinal tract were measured. The intestinal propulsion rate was the ratio of the two. The total length from pylorus to ileocecal junction and the distance from pylorus to the front of the carbon ink were measured, and the carbon ink propulsion percentage was calculated. Intestinal propulsion rate=distance from front of carbon ink to pylorus/full length of small intestine×100%.
# SPF-grade rats = experiment: Rat bowel preparation experiment (bowel cleansing effect); assay type: in vivo
# Description: Experimental materials: L-arabinose, selected from the L-arabinose crystallization sample with batch No. 1221 in the example, prepared into a 0.4 g/mL solution with purified water; PEG (Shutaiqing), prepared into a 0.521 g/mL PEG solution with purified water; SPF-grade rats (Zhejiang Vital River Laboratory Animal Technology Co., Ltd.). • 5.1. Experimental animals and feeding thereof: SPF (specific pathogen free)-grade rats (200±10 g), 6 weeks old; normal feed was D12450-B feed: 67.35 wt % carbohydrates, 19.2 wt % crude protein, and 4.3 wt % fat. The temperature of the room was kept at 24° C. to 26° C. with humidity at 40% to 60%. • 5.2. Experimental method and procedures:
# The SPF-grade rats were randomly divided into a blank control group, a positive control group, and a treatment group, 10 animals per group, half being male and half female. Administration method: Animals in each group were fasted (water was accessible) starting at 22:00 the night before experiment, were each given ½ the calculated amount of drug by intragastrical administration at 7:00 and 9:00 on the day of experiment, were each given 2.0 mL of purified water at 12:00 and 13:00, and were dissected 3.5 h after the last administration.
Structure (SMILES),Time for first dark stools min (constipation model rats; Positive control 2.0 mg kg/d) [min],Small intestine propulsion rate % (constipation model rats; Positive control 2.0 mg kg/d),Water content of stools % (constipation model rats; Positive control 2.0 mg kg/d),Dosage relative to that administered to the positive control group to achieve the same effect (SPF-grade rats; 9 g/kg L-arabinose vs 21.9 g/kg PEG) [%],"Stools observed before the dissection (SPF-grade rats; L-arabinose batch No. 1221, 9 g/kg (22.5 mL/kg) intragastric in 2 doses, fasted rats)","Residue in the rectum and colon after the dissection (SPF-grade rats; L-arabinose batch No. 1221, 9 g/kg intragastric in 2 doses, dissected 3.5 h after last administration)",Time for first dark stools min (constipation model rats; High dose 0.80 g kg/d) [min],Small intestine propulsion rate % (constipation model rats; High dose 0.80 g kg/d),Water content of stools % (constipation model rats; High dose 0.80 g kg/d),Time for first dark stools min (constipation model rats; Low dose 0.20 g kg/d) [min],Small intestine propulsion rate % (constipation model rats; Low dose 0.20 g kg/d),Water content of stools % (constipation model rats; Low dose 0.20 g kg/d),Time for first dark stools min (constipation model rats; Medium dose 0.40 g kg/d) [min],Small intestine propulsion rate % (constipation model rats; Medium dose 0.40 g kg/d),Water content of stools % (constipation model rats; Medium dose 0.40 g kg/d)
"CCOc1cc(N)c(Cl)cc1C(=O)NCC1CN(Cc2ccc(F)cc2)CCO1 (stereo not drawn) [Positive control, reference compound]",67 ± 8.8,82% ± 4.4,57% ± 0.9,–,–,–,–,–,–,–,–,–,–,–,–
"O=C[C@H](O)[C@@H](O)[C@@H](O)CO [L-arabinose, L-Arabinose]",–,–,–,41,Watery and loose stools,no residue was left in the rectum and colon,63 ± 5.7,83% ± 2.8,61% ± 2.4,76 ± 8.5,75% ± 3.1,54% ± 1.8,64 ± 6.2,80% ± 2.7,59% ± 2.7
